Where a name gives a salt, the structure may show the parent alone.
Each compound was assayed against T1, human TLR7 (hTLR7) (Homo sapiens, UniProt Q9NYK1) (assay: Antagonist screen, hTLR7-NFκB-293 cells, NF-κB-luciferase reporter, with EC50 of R848). Settings: compound at 0.5, 5, 50 μg/ml; EC50 concentration of R848; 16 h; NF-κB-luciferase.
T1 construct: expressed in transfected cells
T1 sequence (Q9NYK1 27-1049): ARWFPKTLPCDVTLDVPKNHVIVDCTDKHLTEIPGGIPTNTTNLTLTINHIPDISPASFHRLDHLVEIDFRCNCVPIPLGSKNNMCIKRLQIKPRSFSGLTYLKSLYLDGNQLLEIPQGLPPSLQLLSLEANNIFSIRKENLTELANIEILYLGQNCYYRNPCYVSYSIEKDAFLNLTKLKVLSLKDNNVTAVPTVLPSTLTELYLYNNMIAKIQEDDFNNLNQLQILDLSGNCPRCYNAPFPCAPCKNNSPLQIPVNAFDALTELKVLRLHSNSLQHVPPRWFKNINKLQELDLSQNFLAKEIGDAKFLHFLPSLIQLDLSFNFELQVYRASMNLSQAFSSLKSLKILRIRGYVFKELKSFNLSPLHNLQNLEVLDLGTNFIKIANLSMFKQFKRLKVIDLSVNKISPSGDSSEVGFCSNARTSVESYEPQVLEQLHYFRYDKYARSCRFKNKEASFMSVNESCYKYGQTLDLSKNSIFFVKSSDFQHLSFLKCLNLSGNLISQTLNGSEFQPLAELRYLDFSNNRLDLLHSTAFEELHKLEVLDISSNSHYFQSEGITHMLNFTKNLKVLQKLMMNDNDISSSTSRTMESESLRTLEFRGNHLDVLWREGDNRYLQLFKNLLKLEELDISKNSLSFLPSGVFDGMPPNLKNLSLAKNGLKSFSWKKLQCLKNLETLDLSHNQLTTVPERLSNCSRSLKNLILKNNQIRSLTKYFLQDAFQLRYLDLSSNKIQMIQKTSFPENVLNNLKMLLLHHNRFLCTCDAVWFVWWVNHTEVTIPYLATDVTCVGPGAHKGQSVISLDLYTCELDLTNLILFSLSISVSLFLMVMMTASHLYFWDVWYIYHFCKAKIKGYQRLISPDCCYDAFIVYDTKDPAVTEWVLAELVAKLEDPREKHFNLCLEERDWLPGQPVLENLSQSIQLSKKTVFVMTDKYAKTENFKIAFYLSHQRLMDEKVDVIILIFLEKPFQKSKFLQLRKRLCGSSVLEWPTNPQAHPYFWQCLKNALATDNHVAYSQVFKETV
Format: cell-based
Experimental: The method is described in greater detail as follows. The cells for each individual cell clone (hTLR3-NFκB-293, hTLR7-NFκB-293, hTLR8-NFκB-293 and hTLR9-NFκB-293) were counted and seeded one day before the stimulation at 1.5×10^4 cells per well in 96-well cell culture plates. To become adherent the cells were incubated after seeding overnight at 37° C. in 5% CO2 humidified air.
The screen for each compound was performed at the same time for all of the receptors TLR3, TLR7, TLR8 and TLR9. Up to fifteen test compounds, each assayed in duplicate at each of three different final concentrations (0.5 μg/ml, 5 μg/ml, and 50 μg/ml), were used for 16 h cell stimulation on a single multiwell culture plate. A 4× final concentration master plate was created to prepare the different test compounds before they were added to the cells.
Controls were added as duplicates individually for each cell clone on the cell culture plate. Positive controls were used as follows (final concentrations): 50 μg/ml poly(I:C) for hTLR3-NFκB-293; 8 μM resiquimod (R848) for hTLR7-NFκB-293; 30 μM R848 for hTLR8-NFκB-293; and 2.5 μM CpG-ODN 2006 for hTLR9-NFκB-293. Media alone was used as negative control. After addition of controls and small molecules, the cell clones were additionally stimulated with the EC50 concentration of the appropriate receptor-specific ligand.
The mean value of wells H2 and H5 (each with cells and EC50 concentration of the appropriate receptor-specific ligand) divided by the mean of wells H3 and H6 (each with cells alone) yielded the baseline response (i.e., fold induction of luciferase activity) to EC50 concentration of the appropriate receptor-specific ligand.
After 16 h stimulation the supernatant was removed and the cells treated with lysis buffer and stored at −80° C. before measuring.
For each screen result a graphical documentation was performed.
The baseline result (measured with addition of the EC50 concentration of the receptor-specific ligand) for each cell culture plate was measured as described above. Antagonistic effects were measured by down regulation compared to the baseline. Antagonists were scored as follows: • 13: compounds for which there was clear down regulation at 0.5 μg/ml, 5 μg/ml, and 50 μg/ml; • 12: compounds for which there was clear down regulation at 5 μg/ml and 50 μg/ml; • 11: compounds for which there was clear down regulation only at 50 μg/ml; • —: compounds for which there was no clear down regulation even at 50 μg/ml. Agonists
Results were expressed as fold induction over baseline luciferase activity measured in the absence of R848. […] Additional screening was performed in like manner using additional small molecules selected from another library or specifically prepared for this purpose. Scoring is reported as above but as applied to TLR7.

Row | Compound | hTLR7 (inhibitory effect, antagonist score)
1 | CN(C)CCCN1c2ccccc2Sc2ccc(C(F)(F)F)cc21.Cl [compound 53, Triflupromazinehydrochloride] | 11 (compounds for which there was clear down regulation only at 50 μg/ml)
2 | C=CCc1ccccc1OC1(c2ccccc2)OC(=O)c2ccccc21 (stereo not drawn) [compound 957] | 11 (compounds for which there was clear down regulation only at 50 μg/ml)
3 | O=C(O)c1cccc2c1/C(=N/O)c1ccccc1-2 [compound 918] | 11 (compounds for which there was clear down regulation only at 50 μg/ml)
4 | CN1CCC(=C2c3ccccc3Sc3ccccc32)CC1.O=C(O)/C=C\C(=O)O [compound 294, Pimethixene maleate] | 11 (compounds for which there was clear down regulation only at 50 μg/ml)
5 | O=C(O)c1ccccc1NC1CC=CC2=C1C(=O)c1ccccc1C2=O (stereo not drawn) [compound 917] | 11 (compounds for which there was clear down regulation only at 50 μg/ml)
6 | CCOC(=O)c1cc([N+](=O)[O-])cc2c1-c1ccc([N+](=O)[O-])cc1C2=C(C#N)C#N [compound 1039] | 11 (compounds for which there was clear down regulation only at 50 μg/ml)
7 | Cl.Cl.Fc1ccc(C(OCCN2CCN(CCCc3ccccc3)CC2)c2ccc(F)cc2)cc1 [compound 386, GBR 12909hydrochloride] | 11 (compounds for which there was clear down regulation only at 50 μg/ml)
8 | COCCCNC(=O)c1ccc2c(c1N)C(=O)c1ccccc1C2=O [compound 1337] | 11 (compounds for which there was clear down regulation only at 50 μg/ml)
9 | Cl.Cl.c1ccc2c3c([nH]c2c1)C1C2CCC(C4CCCNC42)N1CC3 (stereo not drawn) [compound 685, Nitrarine dihydorchloride] | — (compounds for which there was no clear down regulation even at 50 μg/ml)
10 | COC(=O)c1ccc(C2CC(=O)Nc3c2ccc2ccccc32)cc1 (stereo not drawn) [compound 965] | 12 (compounds for which there was clear down regulation at 5 μg/ml and 50 μg/ml)
11 | O=C(c1cccc2c1-c1ccccc1/C2=N\O)N1CCCCC1 [compound 1050] | 12 (compounds for which there was clear down regulation at 5 μg/ml and 50 μg/ml)
12 | OCCN1CCN(CCCN2c3ccccc3Sc3ccc(Cl)cc32)CC1 [compound 125, Perphenazine] | — (compounds for which there was no clear down regulation even at 50 μg/ml)
13 | Metixene hydrochloride [compound 491] | 11 (compounds for which there was clear down regulation only at 50 μg/ml)
14 | CC[C@]12CCCN3CCc4c(n(c5ccccc45)C(=O)C1)[C@@H]32 [compound 607, Eburnamonine] | 11 (compounds for which there was clear down regulation only at 50 μg/ml)
15 | CCOC(=O)Oc1c(OC)cc(C(=O)O[C@@H]2C[C@@H]3CN4CCc5c([nH]c6cc(OC)ccc56)[C@H]4C[C@@H]3[C@H](C(=O)OC)[C@H]2OC)cc1OC [compound 564, Syrosingopine] | 11 (compounds for which there was clear down regulation only at 50 μg/ml)
16 | COC(=O)[C@H]1[C@H]2C[C@@H]3c4[nH]c5cc(OC)ccc5c4CCN3C[C@H]2C[C@@H](OC(=O)c2cc(OC)c(OC)c(OC)c2)[C@@H]1OC [compound 875, Reserpine] | — (compounds for which there was no clear down regulation even at 50 μg/ml)
17 | O=C(O)c1ccc(C2(c3ccc(C(=O)O)cc3)OC(=O)c3ccccc32)cc1 [compound 970] | — (compounds for which there was no clear down regulation even at 50 μg/ml)
18 | Cc1nccc2c1[nH]c1ccccc12 [compound 620, Harmane hydrochloride] | — (compounds for which there was no clear down regulation even at 50 μg/ml)
19 | OC(c1ccccc1)(c1ccccc1)C1CCNCC1 [compound 93, Azacyclonol] | — (compounds for which there was no clear down regulation even at 50 μg/ml)
20 | CC1NCCc2c1[nH]c1ccccc21.Cl (racemic) [compound 619, Eleagnine hydrochloride (R,S)] | — (compounds for which there was no clear down regulation even at 50 μg/ml)
21 | CC(=O)Oc1cc(C)c(C2(c3cc(C(C)C)c(OC(C)=O)cc3C)OC(=O)c3ccccc32)cc1C(C)C [compound 1161] | 12 (compounds for which there was clear down regulation at 5 μg/ml and 50 μg/ml)
22 | C[C@]12N[C@H](Cc3ccccc31)c1ccccc12.O=C(O)/C=C\C(=O)O [compound 109, Dizocilpine maleate] | — (compounds for which there was no clear down regulation even at 50 μg/ml)
23 | NC(=O)c1cccc2c1-c1ccccc1C2 [compound 1132] | 11 (compounds for which there was clear down regulation only at 50 μg/ml)
24 | CN1CCCCC1CCN1c2ccccc2Sc2ccc([S+](C)[O-])cc21.O=S(=O)(O)c1ccccc1 (stereo not drawn) [compound 529, Mesoridazine besylate] | — (compounds for which there was no clear down regulation even at 50 μg/ml)
25 | COc1ccc2c(c1)[nH]c1c(C)nccc12.Cl [compound 613, harmine hydrochloride] | 13 (compounds for which there was clear down regulation at 0.5 μg/ml, 5 μg/ml, and 50 μg/ml)
26 | Cc1cccc(C)c1NC(=O)CN1CCN(CCCC(c2ccc(F)cc2)c2ccc(F)cc2)CC1 [compound 381, Lidoflazine] | 11 (compounds for which there was clear down regulation only at 50 μg/ml)
27 | Flunarizinehydrochloride [compound 312] | — (compounds for which there was no clear down regulation even at 50 μg/ml)
28 | O=C(O)c1cccc2c1-c1ccccc1/C2=N/Nc1ccc([N+](=O)[O-])cc1[N+](=O)[O-] [compound 944] | 11 (compounds for which there was clear down regulation only at 50 μg/ml)
29 | CN1CCN(CCCN2c3ccccc3Sc3ccc(S(=O)(=O)N(C)C)cc32)CC1.CS(=O)(=O)O.CS(=O)(=O)O [compound 149, Thioproperasinedimesylate] | — (compounds for which there was no clear down regulation even at 50 μg/ml)
30 | Cc1nccc2c1[nH]c1cc(O)ccc12.Cl [compound 612, Harmol hydrochloride monohydrate] | 11 (compounds for which there was clear down regulation only at 50 μg/ml)

Reference: US7410975B2, “Small molecule toll-like receptor (TLR) antagonists” (Coley Pharmaceutical Group, Inc., priority 2003, dated 2008)
